{"source": "patent US6033823A", "about": "“Mutated penicillin G acylase genes” (priority 1994, dated 2000)", "format_in_all_cases": "biochemical", "details_in_all_cases": "from progress curves of NIPAB deacylation, 25° C., 0.1 M NaH2PO4.H2O buffer pH 7.5, read-out: Ki Phenylacetic acid (inhibition constant, dissociation constant)", "key": {"[1]": {"target": "T1, Alcaligenes faecalis Penicillin G acylase mutant B:I177V (Alcaligenes faecalis, UniProt O34142, I442V)", "T1 construct": "alpha 202 aa, beta 551 aa; recombinant, E. coli host", "T1 sequence (O34142 27-228)": "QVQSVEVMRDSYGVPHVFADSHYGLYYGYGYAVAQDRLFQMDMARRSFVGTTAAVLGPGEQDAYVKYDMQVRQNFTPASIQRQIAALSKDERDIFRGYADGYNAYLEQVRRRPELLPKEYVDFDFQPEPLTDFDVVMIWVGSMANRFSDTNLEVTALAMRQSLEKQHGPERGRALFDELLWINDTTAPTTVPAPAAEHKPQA", "T1 sequence (O34142 266-816 I442V)": "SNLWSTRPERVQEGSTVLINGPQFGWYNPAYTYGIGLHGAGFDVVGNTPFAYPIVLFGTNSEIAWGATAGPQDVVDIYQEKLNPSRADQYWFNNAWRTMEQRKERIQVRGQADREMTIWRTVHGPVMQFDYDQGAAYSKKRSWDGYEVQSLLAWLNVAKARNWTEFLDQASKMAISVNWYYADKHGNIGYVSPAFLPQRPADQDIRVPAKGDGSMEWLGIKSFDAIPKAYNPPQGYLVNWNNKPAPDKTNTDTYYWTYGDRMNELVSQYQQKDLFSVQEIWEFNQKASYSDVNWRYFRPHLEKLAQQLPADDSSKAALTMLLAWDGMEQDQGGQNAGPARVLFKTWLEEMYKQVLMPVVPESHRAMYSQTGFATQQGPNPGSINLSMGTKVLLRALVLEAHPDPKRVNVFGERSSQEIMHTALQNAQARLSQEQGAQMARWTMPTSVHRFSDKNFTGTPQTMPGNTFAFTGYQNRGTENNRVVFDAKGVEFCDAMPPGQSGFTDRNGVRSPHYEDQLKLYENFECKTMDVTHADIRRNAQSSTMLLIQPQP", "assay": "NIPAB kinetics and phenylacetic acid product inhibition, mutant B:I177V", "protocol": "(§1) In a continuous assay Penicillin G acylase was assayed spectro-fotometrically with the chromogenic substrate NIPAB [6-nitro-3-phenylacetamido-benzoic acid]. The liberation of 3-amino-6-nitrobenzoic acid was monitored by measuring the extinction at 405 nm in a Kontron 610 kinetic spectrofotometer. Measuring maximal rate, the assays were performed at 25° C. using 20 mM NaH2 PO4.H2 O at pH 7.5 with 20 mM NIPAB and 100 μl enzym solution (at a proper dilution). Initial rate measurements were performed with varying concentration of NIPAB.\n(§2) Initial rate measurements were performed with excess substrate over the enzyme. Catalytic parameters were derived from least-squares fitting of the measured initial rates plotted for various substrate concentrations according to the Michaelis-Menten equation.\n(§3) The complete conversion of NIPAB was followed as a funtion of time at 20, 50 and 100 μM NIPAB by following the increase in absorbtion at 405 nm. Products of this conversion are phenylacetic acid and 3-amino-6-nitrobenzoic acid. The conversion was performed at 25° C. in 0.1 M NaH2 PO4.H2 O buffer pH 7.5. The progress curves of the deacylation of NIPAB could be fitted very well when product inhibition by phenylacetic acid was taken into account. […]"}, "[2]": {"target": "T2, Alcaligenes faecalis Penicillin G acylase mutant B:L56V (Alcaligenes faecalis, UniProt O34142, L321V)", "T2 construct": "alpha 202 aa, beta 551 aa; recombinant, E. coli host", "T2 sequence (O34142 27-228)": "T1 sequence (O34142 27-228)", "T2 sequence (O34142 266-816 L321V)": "T1 sequence (O34142 266-816 I442V) with L56V, V177I", "assay": "NIPAB kinetics and phenylacetic acid product inhibition, mutant B:L56V", "protocol": "as §1, §2, §3"}, "[3]": {"target": "T3, Alcaligenes faecalis Penicillin G acylase mutant B:L56G (Alcaligenes faecalis, UniProt O34142, L321G)", "T3 construct": "alpha 202 aa, beta 551 aa; recombinant, E. coli host", "T3 sequence (O34142 27-228)": "T1 sequence (O34142 27-228)", "T3 sequence (O34142 266-816 L321G)": "T1 sequence (O34142 266-816 I442V) with L56G, V177I", "assay": "NIPAB kinetics and phenylacetic acid product inhibition, mutant B:L56G", "protocol": "as §1, §2, §3"}}, "note": "Changes are numbered by the printed parent chain. pKi: −log10 of the molar value."}
{"smiles": "O=C(O)Cc1ccccc1", "note": "[phenylacetic acid]", "values": [{"measurement": "pKi", "setting": "[1]", "value": 4.46}, {"measurement": "pKi", "setting": "[2]", "value": 4.51}, {"measurement": "pKi", "setting": "[3]", "value": 4.26}]}
